For one assay, the target named is CB1Rs (Mus musculus (Mouse), UniProt P47746). Nature of the assay: Competition receptor binding with [3H]CP-55,940 in mouse brain homogenates. Here is the method: Mouse brain homogenates for in vitro assays were prepared as previously described. Briefly, whole brains were harvested from B6SJL mice, snap-frozen in liquid nitrogen and stored at −80° C. On the day membrane homogenates were to be prepared, brains were thawed on ice, then pooled in a 40 mL Dounce glass homogenizer and suspended in 5 volumes of ice cold homogenization buffer (50 mM HEPES, pH 7.4, 3 mM MgCl2, and 1 mM EGTA). Brains were then subjected to 10 complete strokes with an A pestle, followed by centrifugation at 40,000×g for 10 minutes at +4° C. Resulting supernatants were discarded, and the pellet was resuspended, homogenized and centrifuged similarly twice more, with supernatants being discarded. For the final resuspension and homogenization with a B pestle, ice-cold 50 mM HEPES was used in place of homogenization buffer, and homogenates were aliquoted and stored at −80° C. Protein concentrations of homogenates were determined using the BCA™ Protein Assay (Thermo Scientific, Rockford, Ill.).
Competition receptor binding was performed as previously described. […] Reactions were terminated by rapid vacuum filtration through Whatman GF/B glass fiber filters, followed by five washes with ice-cold buffer (50 mM Tris, 0.05% BSA). Filters were immediately placed into 7 mL scintillation vials to which 4 mL of ScintiVerse™ BD Cocktail scintillation fluid (Fisher Scientific, Fair Lawn, N.J.) was added. Bound radioactivity was determined after overnight incubation at room temperature and shaking, by liquid scintillation spectrophotometry with an efficiency of 44% (Tri Carb 2100 TR Liquid Scintillation Analyzer, Packard Instrument Company, Meriden, Conn.). Specific binding is expressed as total binding minus non-specific binding, and is graphed for each data point as a percentage of specific binding occurring in the absence of any competitor.
Curve fitting and statistical analyses for in vitro experiments were performed using GraphPad Prism™ version 5.0b (GraphPad Software Inc., San Diego, Calif.). The Cheng-Prusoff equation [45] was used to convert the experimental IC50 values obtained from competition receptor binding experiments to Ki values, a quantitative measure of receptor affinity. Non-linear regression for one-site competition was used to determine the IC50 for competition receptor binding. Curve fitting of concentration-effect curves via non-linear regression was also employed to determine the EC50 (a measure of potency) and Emax (a measure of efficacy) for [^35S]GTPγS concentration-effects experiments. […] Data are expressed as mean±SEM. The Student's t-test was used to determine statistical significance (P<0.05) between two groups, while a one-way ANOVA, followed by Tukey's Multiple Comparison post-hoc test, was used to determine statistical significance (P<0.05) between three or more groups.
The prepared analogues were subjected to in vitro pharmacological testing, which included receptor binding and functional assays at both cannabinoid receptors. Initial receptor binding screens at both CB1Rs and CB2Rs were conducted for the analogues prepared.

In a further assay the test system is NIH Swiss mice. Nature of the assay: Core body temperature by biotelemetry (cannabinoid tetrad, hypothermia). It counts as in vivo, mouse. The procedure:
Prior to surgery (see below), male NIH Swiss mice (Harlan Sprague Dawley Inc., Indianapolis, Ind.), weighing approximately 25-30 g, were housed 3 animals per Plexiglas® cage (15.24×25.40×12.70 cm) in a temperature-controlled room in an Association for Assessment and Accreditation of Laboratory Animal Care (AAALAC) accredited animal facility at the University of Arkansas for Medical Sciences. Room conditions were maintained at 22±2° C. and 45-50% humidity. Lights were set to a 12-h light/dark cycle. Animals were fed Lab Diet rodent chow (Laboratory Rodent Diet #5001, PMI Feeds, Inc., St. Louis, Mo.) and water ad libitum throughout testing Animals were acclimated to the laboratory environment for ˜7 days prior to experiments, and to the biotelemetry chambers for at least 2 hours prior to initiation of data acquisition. All test conditions used groups of 5 or 6 mice, and all mice were drug-naïve (with the exception of surgical anesthetics) prior to testing.
Cannabinoid effects on core temperature and locomotor activity were measured using surgically-implanted biotelemetry probes. Following appropriate anesthetization with ketamine (100 mg/kg, intraperitoneal [i.p.]) and xylazine (10 mg/kg, i.p.), the abdominal area of each mouse was shaved and sanitized with iodine swabs. A rostral-caudal cut approximately 1.5 cm in length was made with skin scissors, providing access to the intraperitoneal cavity. A cylindrical glass-encapsulated radiotelemetry probe (model ER-4000 E-Mitter, Mini Mitter Co., Inc., Bend, Oreg.) was then inserted, and the incision was closed using absorbable 5-0 chromic gut suture material. At least 7 days were imposed between surgery and experimental observation of cannabinoid effects to allow incisions to heal and mice to recover normal body weights. Following surgery, implanted mice were individually housed in Plexiglas® mouse cages (15.24×25.40×12.70 cm) for the duration of all temperature and locomotor activity experiments Implanted transmitters produced activity- and temperature-modulated signals that were transmitted to a receiver (model ER-4000 Receiver, Mini Mitter Co., Inc., Bend, Oreg.) underneath each mouse cage. Receivers were housed in light- and sound-attenuating cubicles (Med Associates model ENV-022MD, St. Albans, Vt.) equipped with exhaust fans, which further masked ambient laboratory noise. On experimental days, mice were weighed, marked, and returned to their individual cages during which at least 1 hr of baseline data were collected. […]. Mice were then placed into a new cage with fresh bedding to stimulate exploratory behavior. Temperature and locomotor activity data were collected at regular 5-min intervals and processed simultaneously by the Vital View data acquisition system (Mini Mitter Co., Inc., Bend, Oreg.) for at least 10 hrs.
For core body temperature experiments, the area under the curve (AUC) was calculated using a trapezoidal rule from 0-500 minutes, and statistical significance (P<0.05) was determined using a one-way ANOVA, followed by Tukey's HSD post-hoc test. For locomotor activity, total locomotor counts were summed from 0-800 minutes. Because locomotor, analgesia and catalepsy data were not normally distributed, Kruskal-Wallis one-way ANOVA on ranks were performed, and all pair-wise comparisons were then made using the Tukey's HSD tests. In vivo statistical calculations were performed using SigmaStat 3 (Systat Software, Inc., San Jose, Calif.).

Setting [1] is: mouse brain homogenates, 0.2 nM [3H]CP-55,940, read-out: [3H]CP binding Ki.

Read-outs that look alike come from different tables or passages of the source.

As a reminder, the Ki is the dissociation constant of the complex between target and ligand, obtained from inhibition or displacement. Regarding `CCCCn1cc(C(=O)c2cccc3ccccc23)c2cccc(O)c21` [Compound M4], the Ki on CB1Rs (Table 3, read-out: mCB1R Ki) was 24.2 ± 17.2 nM; at CB1Rs (mouse brain homogenates, 0.2 nM [3H]CP-55,940, listed as JWH-073-M4, read-out: [3H]CP binding Ki), around 120 nM; at CB1Rs (setting [1]), 122 nM. Also, in the assay with NIH Swiss mice (M4 10 mg/kg i.p. co-administered with JWH-018 3 mg/kg i.p.), the “JWH-018-induced hypothermia blunted by co-administration, core body temperature” value is 33.09+/−0.70 °C. The “change in body temperature, given alone” value in the assay on NIH Swiss mice (M4 10 mg/kg, i.p., alone) is reported as “no significant change in body temperature”.
For the compound `CCCCn1cc(C(=O)c2cccc3ccccc23)c2ccccc21` [JWH-073, (1-butyl-1H-indole-3-yl)-1-naphthalenyl-methanone], the Ki on CB1Rs (Table 3, read-out: mCB1R Ki) was 12.9 ± 3.4 nM; on CB1Rs (setting [1]) it was 12.9 ± 3.4 nM. In the assay on NIH Swiss mice (10 mg/kg, i.p.), the “minimum core body temperature recorded” value is 29.74±1.44 °C. Besides, the “time to maximal core body temperature reduction” value in the assay with NIH Swiss mice (10 mg/kg, i.p.) came to 54.17 ± 5.23 min.

The record behind these values is patent publication US9416103B2, “Use of the aminoalkylindole JWH-073-M4 and related compounds as neutral CB1 receptor antagonists for the treatment of alcoholism, drug abuse, obesity, and obesity-related diseases” (The Board of Trustees of the University of Arkansas, priority 2012, dated 2016).
